Measured values reported in patent US10238670B2, “9-aminomethyl minocycline compounds and methods of use thereof in urinary tract infection (UTI) treatment” (Paratek Pharmaceuticals, Inc., priority 2016, dated 2019).

Test system: plasma proteins
Assay: In vitro plasma protein binding (ultrafiltration), monkey plasma
Assay type: in vitro ADME, monkey (Cynomolgus)
Conditions: 10-10,000 ng/mL
Method: For human binding studies, plasma was obtained from the blood of three healthy male volunteers. Plasma was defrosted from storage at -20° C. before use, and pools of human plasma were used for all studies. Plasma from mouse, rat, and monkey was supplied by Harlan Laboratories Ltd. (Netherlands), Milan […], Switzerland) and Centre de Primatologie ULP (France), respectively. Protein binding was measured using an ultrafiltration method. To asses the suitability of ultrafiltration, the recovery and free permeation of [^14C]-labelled Compound 1 in PBS buffer were investigated. […] Three 1 mL aliquots per concentration were introduced into […]® devices and spun for 1 min at 2000 g (filtrate ≤500 μL). Samples of the spiked solutions, the filtrate and retentate were quantified by LSC; volumes were determined by weighing. The free permeation of the test compound in PBS was evaluated as follows: Ratio=[Cuf/Cr] with Cuf being the concentration in the ultrafiltrate (ng/mL) and Cr the concentration in the retentate (ng/mL). […] Specifically, concentrations of Compound 1 was determined by an UPLC-MS/MS method. […] Standards and quality control samples were prepared on the day of analysis by adding a 20 μL aliquot of an appropriate standard or QC spiking solution in methanol. A 25 μL aliquot of the internal standard (at 200 ng/mL in methanol) was added to each well except blanks. […] Samples were processed using protein precipitation. A 0.5 mL aliquot of an acetonitrile/ethanol/acetic acid mixture (90:10:0.1, v:v:v) was added to each sample; samples were mixed using a vortex mixer for 10 minutes, and centrifuged 3800 rpm (approximately 2500×g) for 10 min at 10° C. […] The ions monitored for Compound 1 was the parent [M+H]^+ ion at m/z 557.3.0; the product ions at m/z 453.4. […] The quantification was performed using Analyst software and Watson LIMS version 7.2.0.01. Concentrations in QC and study samples were calculated from the resulting peak area ratios and interpolation from the regression equations of the respective calibration curves. The lower limit of quantitation was 5.0 ng/mL for Compound 1.

## CN(C)c1cc(CNCC(C)(C)C)c(O)c2c1C[C@H]1C[C@H]3[C@H](N(C)C)C(O)=C(C(N)=O)C(=O)[C@@]3(O)C(O)=C1C2=O [Compound 1, 9-[(2,2-dimethyl-propylamino)-methyl]-minocycline]
  Mean (SD) Bound Fraction: 21.2 (7.26) %
mean±SD
  mean unbound protein fraction (fu) in plasma: 78.8±7.3%
